The target of one data set is HERG protein (Homo sapiens, UniProt Q12809).
The target of data set [1] is T1, HERG K+ channel (Homo sapiens, UniProt Q12809).
For data set [2], the target named is T1, HERG K+ channel. The procedure:
Cell functional assay using membrane potential dye—A membrane potential dye-based functional assay based on the HERG-expressing CHO cells has been developed. This assay was performed on the same library in parallel with the radioligand and AA-based functional assay. HERG-expressing CHO cells were plated as for the AA assay, except they were loaded with […] DiBAC4 instead of RbCl. Test samples or controls were added inside a Molecular Devices FlexStation and readings were taken over a 25 minute time frame.
Membrane Potential Assay Procedure—100 uL of 250,000 cells/mL in media were added to a 96-well assay plate and cultured overnight. The cells were washed with Hanks/HEPES buffer with 2 g/L of glucose (loading buffer) and 100 uL of warmed loading buffer was added. 80 uL of the FLIPR Membrane Potential dye (Molecular Devices; dissolved in loading buffer) was then added and the samples incubated for at 45 min at 37° C. Drugs (10× final concentration) in loading buffer were run along with no-drug controls. […] […] Maximum response plateau is expected at approximately 7 minutes. This value will be used for EC50 calculation. […] For the other “actives”, IC50 values will be determined in this assay and at 1 or 2 concentrations in the Rb^+ flux assay.
One whole cell based functional assay we employed was based on the voltage sensitive dye DiBac4, using a detection method originally developed by Dr. Vince Groppi of Pharmacia-Upjohn FLIPR and FlexStation fluorescence detection systems. Cells expressing ion channels like HERG protein are hyperpolarized in the resting state. Inhibition of ion channel activities allows cells to return to normal potential. As the cell membrane becomes more positive, dye migrates into cell membrane, increasing the quantum efficiency of the dye and thus increasing fluorescence. […] Large number of compounds may be readily tested in either 96- or 384-well format. The mechanism of detection is based on the dye translocation in response to changes of the membrane environment. In certain circumstances, it may be desirable to perform confirmatory assays.
The source holds these as a separate data set.

In data set [3] the target is T1, HERG K+ channel. The protocol:
Cell functional assay using atomic absorption detection—Rubidium flux out of HERG-transfected CHO cells was characterized using a Shimadzu atomic absorption system. The amount of rubidium in the extracellular and intracellular compartments was determined after depolarization with 50 mM KCl, following a 3-minute incubation with test sample. The atomization buffer included 0.1% […]/1% HNO3 to suppress ionization of rubidium.
Minor modification of the published protocol was necessary due to different expression levels of the HERG protein in recombinant cells.
Two injections per sample are made into a Shimadzu AA and if the cv reaches 10%, a third injection is performed; the computer selects the two closer values.
This is another data set of the same source.

In the next data set the target is HERG potassium current (Homo sapiens, UniProt Q12809). Conditions: cited from earlier work.
Where [4] appears, read: radiolabeled form, wild type vs recombinant CHO cells.

“Also recorded” adds a separate entry of the source. Read-outs that look alike come from different tables or passages of the source. No end group written: not given here.

HERG protein, sequence (Q12809 whole entry): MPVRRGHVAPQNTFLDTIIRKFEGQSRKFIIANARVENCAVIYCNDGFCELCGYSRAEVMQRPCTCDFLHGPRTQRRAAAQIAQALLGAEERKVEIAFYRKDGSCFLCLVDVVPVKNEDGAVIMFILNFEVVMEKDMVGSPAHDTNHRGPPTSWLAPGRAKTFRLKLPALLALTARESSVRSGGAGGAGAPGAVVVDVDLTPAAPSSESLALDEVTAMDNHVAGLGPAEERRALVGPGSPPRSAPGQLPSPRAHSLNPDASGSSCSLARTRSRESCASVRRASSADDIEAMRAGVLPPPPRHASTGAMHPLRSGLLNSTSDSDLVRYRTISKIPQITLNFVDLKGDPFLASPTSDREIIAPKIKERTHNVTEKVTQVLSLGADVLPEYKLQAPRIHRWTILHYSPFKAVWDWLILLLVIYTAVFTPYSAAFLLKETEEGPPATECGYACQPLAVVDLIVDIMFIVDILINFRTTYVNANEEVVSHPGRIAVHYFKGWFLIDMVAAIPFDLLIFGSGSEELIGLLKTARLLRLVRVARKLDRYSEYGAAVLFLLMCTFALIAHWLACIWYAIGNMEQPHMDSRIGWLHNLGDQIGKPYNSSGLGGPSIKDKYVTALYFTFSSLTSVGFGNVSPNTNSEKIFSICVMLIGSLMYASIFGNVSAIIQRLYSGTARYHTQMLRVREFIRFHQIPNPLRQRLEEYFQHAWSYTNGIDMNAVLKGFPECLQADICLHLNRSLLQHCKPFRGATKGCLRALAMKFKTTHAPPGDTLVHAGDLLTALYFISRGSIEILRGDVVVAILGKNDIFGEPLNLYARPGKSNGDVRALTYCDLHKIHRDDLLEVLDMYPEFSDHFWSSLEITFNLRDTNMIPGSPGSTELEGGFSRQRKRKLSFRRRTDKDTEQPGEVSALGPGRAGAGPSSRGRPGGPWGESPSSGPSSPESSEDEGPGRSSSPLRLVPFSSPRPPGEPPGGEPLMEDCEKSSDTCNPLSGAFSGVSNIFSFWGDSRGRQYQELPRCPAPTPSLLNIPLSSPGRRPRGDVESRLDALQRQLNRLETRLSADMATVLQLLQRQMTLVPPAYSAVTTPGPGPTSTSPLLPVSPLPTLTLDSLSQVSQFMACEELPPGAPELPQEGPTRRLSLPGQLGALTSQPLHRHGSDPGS
T1 sequence (Q12809 whole entry): as above
HERG potassium current, sequence (Q12809 whole entry): as above
Method for HERG protein: Membrane preparations and ligand binding assays—Frozen cell pellets were first thawed and homogenized in 10 to 20 ml of assay buffer. An aliquot was taken for protein determination and the remaining homogenate was centrifuged (48,000×g, 10 min., 4° C.). According to the determined protein concentration, the resultant pellet was suspended in Heylen's buffer and added to radioligand and test compound. […] Bound radioactivity was determined by liquid scintillation spectroscopy.
Sources of radioligand—Various different radioligands were used in order to identify candidates for a given binding site.

For `O=C(CCCN1CCC(O)(c2ccc(Cl)cc2)CC1)c1ccc(F)cc1` [[^3H]-Haloperidol], the “binding of radiolabeled ligand, specificity for the recombinant protein” value (from here on “binding of radiolabeled ligand”) at HERG protein is “high binding levels with both the wild type and the recombinant CHO cells”.

Turning to `COC(=O)[C@H]1[C@@H](c2ccc(F)cc2)C[C@@H]2CC[C@H]1N2C` [WIN-35428], the “binding of radiolabeled ligand” value at HERG protein (setting [4]) was “None of these compounds indicated sufficient specificity”.

Turning to `Fc1ccc(C(OCCN2CCN(CCCc3ccccc3)CC2)c2ccc(F)cc2)cc1` [GBR12909], the “activity in all three assays” value on HERG K+ channel [1] was “consistent and relatively potent activity”.

Take `CC(C)NCC(O)c1ccc(NS(C)(=O)=O)cc1` (racemic) [sotalol, (+/−)sotalol]: at HERG K+ channel [2], the “activity in the dye-based assay” value is on record as “did not exhibit any activity”. Further, the “activity in the assay using atomic absorption” value at HERG K+ channel [3] was “modestly active”.

Take `O=c1[nH]c2ccccc2n1C1CCN(CCCC(c2ccc(F)cc2)c2ccc(F)cc2)CC1` [pimozide, Pimozide]: the “inhibition of HERG channel (Rb+ efflux), dose response” value against HERG K+ channel [3] is reported as “completely inhibited”. The “activity in all three assays” value at HERG K+ channel [1] is “consistent and relatively potent activity”.

`COC(=O)C1=C(C)NC(C)=C(C(=O)OCCN(C)Cc2ccccc2)C1c1cccc([N+](=O)[O-])c1` (centres unmarked) [nicardipine, Nicardipine]: the “activity in the dye-based assay” value is reported as “lack of functional activity; also recorded: did not exhibit any activity” on HERG K+ channel [2] (10^−5 M, room temperature) and “lacked activity” on HERG K+ channel [2] (10^−5 M, room temperature, listed as Nicardipine). At HERG K+ channel [3] (10^−5 M, room temperature), the “activity in the assay using atomic absorption” value was “modestly active”.

`CC[C@H]1OC(=O)[C@H](C)[C@@H](O[C@H]2C[C@@](C)(OC)[C@@H](O)[C@H](C)O2)[C@H](C)[C@@H](O[C@@H]2O[C@H](C)C[C@H](N(C)C)[C@H]2O)[C@](C)(OC)C[C@@H](C)C(=O)[C@H](C)[C@@H](O)[C@]1(C)O` [Clarithromycin]: on HERG potassium current, the IC50 is 45.7 µM.

Regarding “[^125I]-BeKm-1: custom preparation of the iodinated scorpion toxin (RPTDIKCSESYQCFPVCKSRFGKTNGRCVNGFCDCF; ends and bridges not checked; also: 125I iodinated, site not given here; UniProt Q9BKB7 22-57, looked up)”, the “binding of radiolabeled ligand” value with HERG protein (setting [4]) is listed as “did not observe sufficient binding”.

Take `O=C(CCCN1CCC(O)(c2ccc(Cl)cc2)CC1)c1ccc(F)cc1` [haloperidol, Haloperidol]: the “inhibition of HERG channel (Rb+ efflux), dose response” value against HERG K+ channel [3] is listed as “completely inhibited”.

Consider `c1ccc(CCCN2CCN(CCOC(c3ccccc3)c3ccccc3)CC2)cc1` [GBR12935], for which, at HERG K+ channel [1], the “activity in all three assays” value is “consistent and relatively potent activity”.

As a reminder, the IC50 is the concentration that inhibits the measured activity by half.

Source of the values: US20060136140A1, “Method for identification and functional characterization of agents which modulate ion channel activity” (priority 2004, published 2006).
